Experimental findings from patent US20140106387A1, “METHOD FOR CONTROLLING NAD(P)/NAD(P)H RATIO BY OXIDOREDUCTASE” (MD BIOALPHA CO., LTD., priority 2006, published 2014) are described below.

The test system of one experiment is cardiomyocytes. As to the kind of experiment: intracellular NAD(P)H fluorescence in cardiomyocytes. It counts as cell-based. The method, then:
HepG2 (human hepatoma cell line), HEK293 (Human embryonic kidney cell line), and C2C12/L6 myoblasts were purchased from American Type Culture Collection (ATCC, Manassas, Va., USA). LKB-/- MEFs were purchased from R.A. DePinho. Rat ventricular myocytes were enzymatically isolated from the heart of adult […] by a known method. Phosphorylation of AMPK ([…]) and ACC ([…]) was measured by Western blot analysis using Cell Signaling Technologies and pan- and phospho-specific antibodies (Upstate Biotechnology, Inc., Lake Placid, N.Y.). In order to monitor monochromatic fluorescence (350 nm), light was illuminated using a 75 W xenon arc lamp directed via a 10 Hz chopper wheel; specific fluorescence intensity was measured at a wavelength of 405±15 nm and 460±10 nm. Even though autofluorescence at 460 nm may occur from unknown intracellular components or cytosolic NAD(P)H, most of the light detected by the method of the present invention was generated from mitochondrial NAD(P)H. Specifically, the NQO1 activity and changes in the intracellular NAD(P)H fluorescence concentration in the presence/absence of NQO1 activity were measured in HepG2, HEK293 and pSG5 HA-NQO1 or pSG5 HA NQO1 […]-inserted HEK293 cells.

A short description of experiment [1]: body weight, dietary intake, fat and tissue histology in C57BL/6 DIO mice. It counts as in vivo, mouse. Here is the method:
The removed tissues were cut into a proper size, fixed in 10% formalin, washed with water, and embedded in paraffin to prepare blocks, according to a conventional method. The thus-prepared blocks were sectioned into a 4 μm thickness and subjected to hematoxylin and eosin (H&E) staining for observation of general changes.
For observation of cellular microstructures, the removed tissues were sliced into a size of 1 mm^3, pre-fixed in 2.5% glutaraldehyde (0.1M PBS, pH 7.4, 4° C.) for 2 to 4 hours, washed, and post-fixed in a 1% osmium tetroxide solution for 2 hours. Then, according to a conventional method, the tissues were dehydrated with serial concentrations of ethanol and the solvent was replaced with propylene oxide. The tissues were embedded in an epoxy resin mixture, and the embedded tissues were subjected to thermal polymerization to prepare blocks. The thus-prepared blocks were sectioned into a thickness of 0.5 to 1 μm using a ultramicrotome and stained with toludine blue. Observation sites were selected under a light microscope and the tissues were ultrasectioned to a thickness of 60 to 70 nm. The ultrasectioned specimens were subjected to dual staining of uranyl acetate and lead citrate and were observed under a transmission electron microscope (H-600, Hitachi, Japan) at an accelerating voltage of 75 kV.
Cryosectioned tissues were sectioned into a thickness of 5 μm, dried in air for 1 hour and reacted in a filtered 0.5% oil red 0 solution for 20 min. The tissue sections were washed with tap water, subjected to double staining with Gill hematoxylin for 20 to 30 sec, water-washed, and observed.
Adipose tissues were sectioned into a thickness of 3 μm, deparaffinized, exposed to antigens in a citrate buffer under high pressure for 4 min and washed. The mixture was reacted in a 3% hydrogen peroxide solution for 10 min, and the reaction product was washed three times with a TBST solution for 3 min. The product was reacted with primary antibodies (guinea pig, anti-perilipin) against 200-fold diluted perilipin for 1 hour and washed with a TBST solution. Secondary antibodies (donkey anti-guinea pig, cy3-conjugated) were added and reacted with the product for 30 min. The reaction product was washed three times with a TBST solution for 3 min, mounted with Fluormount G and then observed under a fluorescence microscope.
Animals were continuously fed high-fat diet pellets for 3 to 4 weeks, thereby establishing DIO mice. Mice were raised in a breeding room with a 12 h/12 h light/dark D) cycle. Animals were divided into three groups, i.e., a group with administration of physiological saline (n=3), a group with administration of a vehicle (n=5) and a group with administration of 50 mg/kg of a candidate compound (n=7). Samples were orally administered to animals every day. On Days 7, 28 and 56, each tissue was removed, frozen in liquid nitrogen, and stored at […] for short and long periods of time.
All experimental animal procedures were performed according to a guideline of Institutional Animal Care and Use Committee, Chungnam National University School of Medicine. OLETF rats were purchased from Otsuka Research Institute. Male ob/ob and C57BL/6 mice were purchased from Jackson Laboratory. Animals were housed in a breeding room maintained at a constant temperature of […] and a 12 h/12 h light/dark (L/D) cycle. 4-week-old C57BL/6 male mice were fed ad libitum high fat diet (HFD, 24% (w/w) and 45% calories as fat, Research Diets Inc., New Brunswick, N.J. 08901, US) for 7 weeks. Mouse groups were divided into an untreated group, a vehicle-treated group (calcium silicate), a pair-fed group and a candidate compound-treated group (calcium silicate-coated […] nanoparticles). Body weight and dietary intake of animals were daily measured. Upon completion of experiments, some mice of each group were anesthetized and received MRI examinations. The remaining mice of the groups were anatomized and tissue weight thereof was measured. […]

Structures are written as SMILES.

Take `CC1(C)CCC2=C(O1)c1ccccc1C(=O)C2=O` [βL, 2,2-Dimethyl-3,4-dihydro-2H-benzo[h]chromene-5,6-dione]: in the experiment on cardiomyocytes, the “decrease of NAD(P)H” value is listed as “about 40%”. In experiment [1] (C57BL/6 DIO mice, 56 days), the “EM of liver tissues” value is “remarkably decreased fat vacuoles and glycogen stores”; the “accumulated fat in the liver (oil red O staining), diminished compared to control” value was not below 90%; the “visceral fat and body weight” value is “conspicuous decreases”. The “amounts of subcutaneous, mesenteric, perirenal and gonadal fats” value in experiment [1] (C57BL/6 DIO, first four weeks of 56 days) was “gradually decreased”. For the same molecule, in experiment [1] (DIO mice), the “number of type 1 myofibers in the soleus muscle” value is on record as “increased”. Further, in experiment [1] (Day 56, 50 mg/kg daily oral), the “size of adipocytes, brown adipose tissues (H&E staining, EM)” value is on record as “remarkably decreased” and the “size of adipocytes, gonadal adipose tissues (perilipin staining)” value is on record as “remarkably decreased”. Further, in experiment [1] (obese mice on high-fat diet, 50 mg/kg daily oral, 56 days), the body weight entry was “continuous weight loss for 56 days”. The dietary intake entry in experiment [1] (obese mice, 50 mg/kg daily oral, 56 days) is “decreases in dietary intake for the first two weeks”. The “muscle mitochondria (EM)” value in experiment [1] (βL-treated DIO mice and ob/ob mice) is “normal morphology and increased numbers of mitochondria”.
